Measured values published in patent US11999805B1, “Peptide inhibitors of CRISPR-Cas9” (priority 2020, dated 2024).
pIC50: −log10 of the molar value. “Also recorded” adds a separate entry of the source. Where two headings read alike, the source gives them in different places. Residues, ends and D or L forms follow the SMILES beside them. No end group written: not given here.

Columns and labels:
SpyCas9 [1] = type: biochemical, S. pyogenes
Experimental: (§1) To determine whether synthetic peptides would inhibit Cas9 cleavage activity, 200 peptide sequences were selected for chemical synthesis based on the following criteria: (1) peptides enriched after independent panning on RNP immobilized on both the Monomeric Avidin and NeutrAvidin columns, (2) Higher Boman index (>2.3), the computed potential protein-protein interaction for a given amino-acids sequence (3) a predicted instability index below 50. Theses peptides were screened at 200 μM for inhibition of Cas9 cleavage activity using the recently developed HT FRET-based assay using a dual-quencher substrate with low background and high sensitivity. See Seamon K J, Light Y K, Saada E A, Schoeniger J S, Harmon B. 2018. Versatile High-Throughput Fluorescence Assay for Monitoring Cas9 Activity. Analytical Chemistry 90:6913-6921. This assay specifically measures DNA substrate cleavage, and is able to differentiate between cleavage of a single strand of DNA and cleavage of both DNA strands.
(§2) Reactions (10 μL tubes) were set up in Cas9 reaction buffer (20 mM Tris-HCl, pH 7.5, 100 mM NaCl, 5 mM MgCl2, 0.1 mM EDTA) containing 50 nM annealed DNA substrate, 1.5 μM sgRNA, and 500 nM Cas9 in the wells of a black low volume 384-well plate. The reactions were incubated for 1 hour at ambient temperature; then, 10 μL of 8 M Gdn-HCl was added to quench the reaction before the plates were covered with an aluminum seal and incubated at 80° C. for 10 minutes. The fluorescence was read in a Tecan Infinite M1000 or SPARK plate spectrofluorometer (Tecan).
(§3) The peptides were diluted 2-fold from 200 to 12.5 μM and incubated for 1 hour with 500 nM SpyCas9, gRNA prior to addition of 50 nM FRET DNA substrate for 1 hour. […] Data are the average ±SD of three replicate wells.
(§4) For the 11 original peptides reactions (10 μL) were set up in Cas9 reaction buffer [20 mM Tris-HCl, pH 7.5, 100 mM NaCl, 5 mM MgCl2, 0.1 mM EDTA] containing 50 nM annealed DNA substrate, 1.5 μM sgRNA, and 0.5 μM Cas9 in the wells of a black low volume 384-well plate. The reactions were incubated for 1 hour at ambient temperature with the indicated concentration of peptide; then, 10 μL, of 8 M Guanidine-HCl was added to quench the reaction. The plates were covered with an aluminum seal and incubated at 75° C. for 10 minutes and cooled down to RT before reading.
(§5) The % inhibition was determined by subtracting normalized relative fluorescent value to Cas9 without peptides (% activity) from 100% cleavage activity of CjeCas9, SauCas9, SpyCas9 by FRET assay. Data are the average ±SD of eleven replicate wells from three technical replicates at the indicated concentration of peptides.
(§6) FIGS. 12A, 12B, and 12C show graphs of measurements and fitted curves of concentration dependent inhibition of mutated peptides against Cas9 variants. The inhibition was measured as relative fluorescent value to Cas9 without peptides (% activity) of CjeCas9 (line with squares), SauCas9 (line with diamonds), SpyCas9 (line with triangles) by FRET assay with the indicated concentration of peptides and compared to original peptides (line with circles). Data are the average ±SD of eleven replicate wells from three technical replicates.

SpyCas9 [2] = biological target: T1, SpyCas9 (Streptococcus pyogenes serotype M1, UniProt Q99ZW2); type: biochemical, S. pyogenes; conditions: for pIC50: read-out: SpyCas9 IC50, FRET cleavage assay, concentration curves, 0.5 μM Cas9, 50 nM DNA substrate
Experimental: as §1, §2, §3, §4, §5, §6

CjeCas9 = biological target: T2, CjeCas9 (Campylobacter jejuni subsp. jejuni serotype O:2, UniProt Q0P897); experiment: HT FRET-based Cas9 cleavage activity assay, CjeCas9; type: biochemical, C. jejuni
T2 construct: made in house; host or cells: E. coli BL21(star)DE3
Experimental: (§7) To evaluate the ability of identified peptides to inhibit other Cas9 variants, SauCas9 and CjeCas9 cleavage assays were used to quantitatively measure changes in activity. […] The inhibition was measured as relative fluorescent value to Cas9 without peptides (% activity) of CjeCas9 (Top), SauCas9 (middle), SpyCas9 (bottom) by FRET assay with the indicated concentration of peptides. Data are the average ±SD of eleven replicate wells from three technical replicates.
as §4, §5, §6

SauCas9 = biological target: T3, SauCas9 (Staphylococcus aureus, UniProt J7RUA5); experiment: HT FRET-based Cas9 cleavage activity assay, SauCas9; type: biochemical, S. aureus
T3 construct: made in house; host or cells: E. coli BL21(star)DE3
Experimental: as §7, §4, §5, §6

SpyCas9 [3] = biological target: T1, SpyCas9; type: cell-based, S. pyogenes; parameters: host or cells: protein RNP lipofected into A549 reporter cells; conditions: for reduction of SpyCas9 editing (relative % CRISPR editing): A549 GFP reporter cells, 500 ng plasmid 24 h before SpyCas9 RNP, compared to plasmid control; for cell toxicity: A549 reporter cells
From the text: The cell-based reporter assay was generated using an endonuclease surrogate reporter construct expressed in A549 cells. This construct was composed of genes encoding two fluorescent proteins (red fluorescent protein (RFP) and green fluorescent protein (GFP)) linked by the endonuclease targeting sequence. In the absence of endonuclease (e.g. Cas9) expression, the reporter was designed to express the RFP but not GFP as it is placed out of frame. Upon expression of Cas9 with a targeting gRNA, the RNP introduces a double stranded break at the target site upstream of the GFP genes leading to frameshift mutations and expression of GFP (FIG. 7). An AAVS1 protospacer and PAM sequence used for targeting by SpyCas9 RNP is in between the RFP and GFP genes. RNP targeting to the AASV1+PAM sequence in the cell's nucleus results in a DSB and error prone NHEJ will likely cause either of the GFP genes to now become in-frame and induce GFP expression. The expression of GFP is strictly dependent on the presence of nuclease activity from endonucleases that specifically recognizes the target sequence in the reporter construct. A549 reporter cells for SpyCas9 were reverse transfected with 100-500 ng of indicated plasmids using Lipofectamine, the plasmids were at a 1:1 ratio with SpyCas9 RNP. […] After 24 hours the media was changed, and 100-500 ng of SpyCas9 RNP was forward transfected using CRISPRMax (Thermo Fisher).
Editing was assessed at 48 hours and 72 hours post transfection using the CX7 plate imager and/or flow cytometry using an ACCURI C6 flow cytometer (BD BIOSCIENCES) with FCS EXPRESS SOFTWARE (DE NOVO SOFTWARE). Cells were counted as edited if their FL-1 fluorescence was greater than that of the no RNP control. […] Error bars represent ±SD across technical replicates (n=2).

SpyCas9 [4] = biological target: T1, SpyCas9; experiment: Beacon DNA binding assay (Cas9 RNP binding to DNA substrate); parameters: species or system S. pyogenes; conditions: for binding of SpyCas9 RNP to DNA substrate (beacon fluorescence): peptide 40 μM, SpyCas9 500 nM, DNA substrate 50 nM
Experimental: To determine the mechanism of action of these peptide inhibitors, a binding assay was performed to determine if inhibitors are blocking Cas9 RNP binding to the DNA substrate. The beacon DNA binding assay was adapted and performed as described in Mekler V, Minakhin L, Semenova E, Kuznedelov K, Severinov K. 2016. Kinetics of the CRISPR-Cas9 effector complex assembly and the role of 3′-terminal segment of guide RNA. Nucleic Acids Res 44:2837-45. DNA probes were prepared from unmodified and chromophore-labeled DNA oligonucleotides synthesized by Integrated DNA Technologies. Equimolar amounts of synthetic complementary strands were mixed in a buffer containing 40 mM Tris, pH 7.9, 100 mM NaCl; heated for 2 min at 90° C. and slowly cooled to 20° C. The PAM-distal ends of the beacon target and non-target strands were labeled with fluorescein and Iowa Black® FQ, respectively. Both beacons mimic native target DNA and bind Cas9/sgRNA. The fluorescent signal is increased when Cas9 binds the DNA substrate and a helix forms with the target substrate strand and gRNA resulting in dissociation of oligo 3, leading to increase in fluorescent signal.
Data are the average ±SD of three replicate wells.

T3 sequence (J7RUA5 whole entry): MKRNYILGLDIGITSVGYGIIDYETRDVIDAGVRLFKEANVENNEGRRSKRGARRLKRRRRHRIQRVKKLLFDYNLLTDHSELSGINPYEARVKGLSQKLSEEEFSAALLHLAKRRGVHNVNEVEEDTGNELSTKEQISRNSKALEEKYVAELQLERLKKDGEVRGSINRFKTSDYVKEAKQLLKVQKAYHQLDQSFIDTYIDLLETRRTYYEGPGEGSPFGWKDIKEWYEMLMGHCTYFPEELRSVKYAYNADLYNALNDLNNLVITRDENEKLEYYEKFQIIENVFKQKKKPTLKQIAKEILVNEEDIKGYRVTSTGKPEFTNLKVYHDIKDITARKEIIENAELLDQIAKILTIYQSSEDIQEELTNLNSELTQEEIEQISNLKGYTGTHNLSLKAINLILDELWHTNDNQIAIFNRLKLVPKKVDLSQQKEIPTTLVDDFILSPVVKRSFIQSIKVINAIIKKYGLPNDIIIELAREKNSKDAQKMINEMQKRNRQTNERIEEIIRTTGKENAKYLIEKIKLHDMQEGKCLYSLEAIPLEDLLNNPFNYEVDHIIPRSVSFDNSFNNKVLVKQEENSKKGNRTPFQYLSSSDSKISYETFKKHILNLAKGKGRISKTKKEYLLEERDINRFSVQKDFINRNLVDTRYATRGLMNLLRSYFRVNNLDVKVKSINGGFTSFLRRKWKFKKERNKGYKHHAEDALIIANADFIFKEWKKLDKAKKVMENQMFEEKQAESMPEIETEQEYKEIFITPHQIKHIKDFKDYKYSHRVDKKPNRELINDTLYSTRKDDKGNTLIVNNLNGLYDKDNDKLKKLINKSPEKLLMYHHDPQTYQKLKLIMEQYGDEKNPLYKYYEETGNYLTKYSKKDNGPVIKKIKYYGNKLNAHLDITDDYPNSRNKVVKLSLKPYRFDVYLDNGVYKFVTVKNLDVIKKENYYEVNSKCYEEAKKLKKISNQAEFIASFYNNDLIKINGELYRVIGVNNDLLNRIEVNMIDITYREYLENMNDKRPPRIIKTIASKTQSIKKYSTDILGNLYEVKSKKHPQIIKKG
T2 sequence (Q0P897 whole entry): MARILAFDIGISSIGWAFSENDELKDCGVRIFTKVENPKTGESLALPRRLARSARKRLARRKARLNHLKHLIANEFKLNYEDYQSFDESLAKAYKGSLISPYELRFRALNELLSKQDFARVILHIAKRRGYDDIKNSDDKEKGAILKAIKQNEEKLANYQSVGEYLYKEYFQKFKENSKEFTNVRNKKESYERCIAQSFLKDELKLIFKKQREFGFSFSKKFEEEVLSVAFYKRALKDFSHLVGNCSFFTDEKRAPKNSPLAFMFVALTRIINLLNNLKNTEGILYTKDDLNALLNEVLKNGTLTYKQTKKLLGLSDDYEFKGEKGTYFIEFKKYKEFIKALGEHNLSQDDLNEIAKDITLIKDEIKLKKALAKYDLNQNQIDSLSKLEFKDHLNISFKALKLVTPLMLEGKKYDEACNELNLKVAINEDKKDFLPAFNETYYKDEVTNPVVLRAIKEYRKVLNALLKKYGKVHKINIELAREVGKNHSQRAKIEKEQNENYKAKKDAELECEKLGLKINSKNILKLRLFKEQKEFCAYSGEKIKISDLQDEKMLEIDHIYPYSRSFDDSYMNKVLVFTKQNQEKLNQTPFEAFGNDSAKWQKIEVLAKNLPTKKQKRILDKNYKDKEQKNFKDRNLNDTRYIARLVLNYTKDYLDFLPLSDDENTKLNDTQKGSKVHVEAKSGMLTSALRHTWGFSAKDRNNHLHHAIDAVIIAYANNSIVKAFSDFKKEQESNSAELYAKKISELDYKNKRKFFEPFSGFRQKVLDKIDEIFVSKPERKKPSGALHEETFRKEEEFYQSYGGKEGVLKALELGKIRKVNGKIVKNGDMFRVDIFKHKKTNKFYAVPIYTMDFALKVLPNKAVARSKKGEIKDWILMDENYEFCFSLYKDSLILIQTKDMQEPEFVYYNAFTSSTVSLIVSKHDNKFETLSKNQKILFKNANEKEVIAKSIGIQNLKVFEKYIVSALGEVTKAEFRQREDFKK
T1 sequence (Q99ZW2 whole entry): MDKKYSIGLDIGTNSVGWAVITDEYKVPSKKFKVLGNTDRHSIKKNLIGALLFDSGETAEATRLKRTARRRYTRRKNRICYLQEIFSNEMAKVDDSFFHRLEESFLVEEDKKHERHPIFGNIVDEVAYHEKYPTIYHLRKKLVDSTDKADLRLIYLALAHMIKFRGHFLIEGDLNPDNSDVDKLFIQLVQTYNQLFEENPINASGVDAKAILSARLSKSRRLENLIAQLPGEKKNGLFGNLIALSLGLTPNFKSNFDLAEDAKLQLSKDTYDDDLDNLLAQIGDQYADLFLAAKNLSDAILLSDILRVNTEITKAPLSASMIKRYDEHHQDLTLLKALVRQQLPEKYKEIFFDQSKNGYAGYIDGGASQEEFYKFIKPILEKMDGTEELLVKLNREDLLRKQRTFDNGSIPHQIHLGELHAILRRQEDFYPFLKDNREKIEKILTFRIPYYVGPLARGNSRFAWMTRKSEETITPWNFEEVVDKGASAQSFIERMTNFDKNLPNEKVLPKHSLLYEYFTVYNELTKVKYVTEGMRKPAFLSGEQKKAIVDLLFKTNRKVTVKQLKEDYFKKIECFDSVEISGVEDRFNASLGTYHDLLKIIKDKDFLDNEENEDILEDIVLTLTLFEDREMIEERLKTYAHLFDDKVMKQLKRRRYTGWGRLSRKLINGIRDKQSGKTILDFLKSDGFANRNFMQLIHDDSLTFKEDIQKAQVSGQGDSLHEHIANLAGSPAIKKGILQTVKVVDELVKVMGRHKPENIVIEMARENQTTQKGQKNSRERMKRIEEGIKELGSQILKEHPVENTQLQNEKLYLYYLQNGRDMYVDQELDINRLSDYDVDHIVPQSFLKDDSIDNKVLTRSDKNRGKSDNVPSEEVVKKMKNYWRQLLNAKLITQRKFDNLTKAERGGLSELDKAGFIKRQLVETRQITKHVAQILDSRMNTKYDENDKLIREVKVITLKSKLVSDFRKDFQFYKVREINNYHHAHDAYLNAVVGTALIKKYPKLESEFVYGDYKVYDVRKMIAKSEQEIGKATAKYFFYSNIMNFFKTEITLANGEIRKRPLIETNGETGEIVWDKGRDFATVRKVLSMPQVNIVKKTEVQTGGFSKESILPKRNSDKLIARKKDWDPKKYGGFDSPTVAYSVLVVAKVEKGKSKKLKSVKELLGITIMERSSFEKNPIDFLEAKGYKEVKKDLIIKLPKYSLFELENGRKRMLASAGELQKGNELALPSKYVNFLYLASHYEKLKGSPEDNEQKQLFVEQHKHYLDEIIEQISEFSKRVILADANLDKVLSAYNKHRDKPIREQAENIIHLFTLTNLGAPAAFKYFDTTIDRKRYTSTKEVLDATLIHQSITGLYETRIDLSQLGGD

Row | Molecule | pIC50 (SpyCas9 [2]) | pIC50 (CjeCas9) | pIC50 (SauCas9) | further results
1 | VRVFSAYERLLIRRRRRRRRAG [Peptide 60-1-10] | 4.57 | 4.52 | 4.56 | activity against SpyCas9, SauCas9 and CjeCas9 (in words) (SpyCas9 [1]): particularly strong activity
2 | PNVKIGKAHLTTIMSTMPLIIC [Peptide 63-2-27] | 4.09 | < 3.70 | 4.02 | 
3 | DRSQKIFLRYNRCRYRLLQRGL [Peptide 90-1-18] | 4.32 | 4.13 | 4.23 | 
4 | KERRRSMMQLSVKSYTLFLGGT [Peptide 82-2-21] | 4.50 | 4.29 | 4.39 | activity against SpyCas9, SauCas9 and CjeCas9 (in words) (SpyCas9 [1]): particularly strong activity
5 | GDPNSRRSHIARLLAMSLTWYS [Peptide 99-1-1] | 4.20 | 3.98 | 4.00 | 
6 | VSAYSADESLLIRRRRRRRRAG [Peptide 60-1-56] | 4.35 | 4.16 | 4.20 | 
7 | RERRRSLIQISVKSYPLFLGGT [Peptide 82-2-28] | 4.14 | < 3.70 | 3.81 | 
8 | DRSHKILLRYNGCHYRLLQRSL [Peptide 90] | 3.94 |  |  | reduction of SpyCas9 editing (relative % CRISPR editing) (SpyCas9 [3]): 35±2.1%; cell toxicity (SpyCas9 [3]): without cell toxicity
9 | TESIRSYFAMTIRRNH [Peptide 80] |  |  |  | mechanism subset: blocks Cas9 RNP binding to target DNA or other mechanism (SpyCas9 [4]): block Cas9 RNP binding to the target DNA
10 | KERHRSLMRTTVKYYSLCLGGT [Peptide 82-2-12] | 4.45 | 4.06 | 4.16 | 
11 | RDPNSRRSHIARLLAMSLTWYS [Peptide 99-2-2] | 4.25 | < 3.70 | 3.96 | 
12 | DRSHKILLCYNGRNKRLLLRRL [Peptide 90-2-18] | 4.33 | 4.13 | 4.17 | 
13 | DRSHKILLRHSGCLYRFLQRYL [Peptide 90-2-5] | 4.06 | < 3.70 | 4.04 | 
14 | CC[C@H](C)[C@H](NC(=O)[C@H](CCCNC(=N)N)NC(=O)[C@H](Cc1ccc(O)cc1)NC(=O)[C@H](Cc1ccc(O)cc1)NC(=O)[C@@H](N)CC(C)C)C(=O)N[C@@H](CCSC)C(=O)N[C@@H](CC(C)C)C(=O)N[C@@H](CO)C(=O)N[C@@H](CS)C(=O)N1CCC[C@H]1C(=O)N[C@@H](CCCCN)C(=O)N[C@@H](Cc1ccc(O)cc1)C(=O)N[C@@H](Cc1ccc(O)cc1)C(=O)N1CCC[C@H]1C(=O)N[C@@H](CS)C(=O)N[C@@H](CCC(=O)O)C(=O)N[C@@H](CC(C)C)C(=O)N[C@H](C(=O)NCC(=O)N[C@@H](Cc1c[nH]cn1)C(=O)N[C@H](C(=O)N[C@@H](CO)C(=O)O)[C@@H](C)O)C(C)C [Peptide 50] (H-LYYRIMLSCPKYYPCELVGHTS-OH) | 3.84 |  |  | reduction of SpyCas9 editing (relative % CRISPR editing) (SpyCas9 [3]): 30±1.4%; cell toxicity (SpyCas9 [3]): without cell toxicity
15 | NRSHKILLHYNGCHYRLFLRSL [Peptide 90-1-27] | 4.55 | 4.23 | 4.35 | activity against SpyCas9, SauCas9 and CjeCas9 (in words) (SpyCas9 [1]): particularly strong activity
16 | LRQISNTSIVMGTTPSSVAVCG [Peptide 61] |  |  |  | mechanism subset: blocks Cas9 RNP binding to target DNA or other mechanism (SpyCas9 [4]): inhibit CACs9 RNP cleavage by another mechanism
17 | LNVKIGNAHLTTIMSTMPLVLC [Peptide 63] |  |  |  | mechanism subset: blocks Cas9 RNP binding to target DNA or other mechanism (SpyCas9 [4]): inhibit CACs9 RNP cleavage by another mechanism
18 | RLYHQCFLACLIDRQSPRNV [Peptide 73] |  |  |  | mechanism subset: blocks Cas9 RNP binding to target DNA or other mechanism (SpyCas9 [4]): block Cas9 RNP binding to the target DNA; binding of SpyCas9 RNP to DNA substrate (beacon fluorescence) (SpyCas9 [4]): unaltered; also recorded: did not reduce substrate binding
19 | KERRRSLMQLSVKSNSLFLGGT [Peptide 82] |  |  |  | mechanism subset: blocks Cas9 RNP binding to target DNA or other mechanism (SpyCas9 [4]): inhibit CACs9 RNP cleavage by another mechanism
20 | LNVKIENAHLTTNLSTMPLVLC [Peptide 63-2-87] | < 3.70 | 4.04 | < 3.70 | 
21 | IAGFRREWFNQNTYFENWHADR [Peptide 15] |  |  |  | reduction of SpyCas9 editing (relative % CRISPR editing) (SpyCas9 [3]): 21±4.2%; cell toxicity (SpyCas9 [3]): without cell toxicity
22 | DGSLKILLRYNGCHYRLLQRSL [Peptide 90-3-50] | 4.18 | < 3.70 | < 3.70 | 
23 | RRSHIAWLLAMSLTWYS [Peptide 99] |  |  |  | activity of SpyCas9 (% activity, FRET) (SpyCas9 [2]; peptide 100 μM): significantly reduced activity; activity of SpyCas9 (% activity, FRET) (SpyCas9 [2]; peptide 200 μM): significantly reduced activity; activity of CjeCas9 (% activity, FRET) (CjeCas9; peptide 100 μM): significantly reduced activity; activity of CjeCas9 (% activity, FRET) (CjeCas9; peptide 200 μM): significantly reduced activity; activity of SauCas9 (% activity, FRET) (SauCas9; peptide 100 μM): significantly reduced activity; activity of SauCas9 (% activity, FRET) (SauCas9; peptide 200 μM): significantly reduced activity; mechanism subset: blocks Cas9 RNP binding to target DNA or other mechanism (SpyCas9 [4]): block Cas9 RNP binding to the target DNA; binding of SpyCas9 RNP to DNA substrate (beacon fluorescence) (SpyCas9 [4]): significantly reduced; also recorded: reducing binding
24 | VCAFSADESLLIRRRHQRRRAG [Peptide 60] | 4.04 |  |  | reduction of SpyCas9 editing (relative % CRISPR editing) (SpyCas9 [3]): 30±2.3%; cell toxicity (SpyCas9 [3]): without cell toxicity
